According to PubChem BioAssay AID330 (DTP/NCI, 2004):
Values joined by “and” are separate entries in the source; they are usually repeats but may differ in a detail not shown here. Equal entries are not always repeated. Toxic doses and inconclusive results are not listed. The calls were made as follows: active = survival T/C of 150% or more; inactive = T/C below 125% in these data.

System: P388 leukemia ip, CD2F1 mice, survival T/C
Experiment: NCI In Vivo Anticancer Drug Screen. Data for tumor model P388 Leukemia (intraperitoneal) in CD2F1 (CDF1) mice
Conditions: endpoint: median survival time, higher = longer survival
In short: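 Mice carrying the transplanted tumor received test compound or vehicle. Survival was recorded in each group, and the value is the treated-group measurement divided by that of the vehicle-treated control group.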

[1] = dose: 50.0 mg/kg/injection, schedule: Q01DX009 (ip), vehicle: Klucel (hydroxypropylcellulose) (HPC)
[2] = dose: 100.0 mg/kg/injection, schedule: Q01DX009 (ip), vehicle: Klucel (hydroxypropylcellulose) (HPC)
[3] = dose: 100.0 mg/kg/injection, schedule: Q01DX005 (ip), vehicle: saline with Tween-80
[4] = dose: 60.0 mg/kg/injection, schedule: Q01DX005 (ip), vehicle: saline with Tween-80
[5] = dose: 120.0 mg/kg/injection, schedule: Q01DX005 (ip), vehicle: saline with Tween-80
[6] = dose: 240.0 mg/kg/injection, schedule: Q01DX005 (ip), vehicle: saline with Tween-80
[7] = dose: 50.0 mg/kg/injection, schedule: Q01DX005 (ip), vehicle: Klucel (hydroxypropylcellulose) (HPC)
[8] = dose: 100.0 mg/kg/injection, schedule: Q01DX005 (ip), vehicle: Klucel (hydroxypropylcellulose) (HPC)

Measured: T/C

C=C1C(=O)OC2C[C@@]3(C)CC(O)C[C@H](C)C3=CC12 (stereo partly specified)
inactive: dose: 10.0 mg/kg/injection, schedule: Q01DX009 (ip), vehicle: distilled water + Tween-80 + alcohol 103 % of control | dose: 20.0 mg/kg/injection, schedule: Q01DX009 (ip), vehicle: distilled water + Tween-80 + alcohol 111 % of control | dose: 37.5 mg/kg/injection, schedule: Q01DX009 (ip), vehicle: distilled water + Tween-80 + alcohol 120 % of control | dose: 40.0 mg/kg/injection, schedule: Q01DX009 (ip), vehicle: distilled water + Tween-80 + alcohol 117 % of control | dose: 75.0 mg/kg/injection, schedule: Q01DX009 (ip), vehicle: distilled water + Tween-80 + alcohol 123 % of control

COc1cccc2c1C(=O)c1c(O)c3c(c(O)c1C2=O)CC(O)(/C(C)=N/NC(=S)c1ccccc1)CC3OC1CC(N)C(O)C(C)O1 (stereo unspecified)
active: dose: 6.25 mg/kg/injection, schedule: Q04DX003 (ip), vehicle: saline 154 % of control | dose: 12.5 mg/kg/injection, schedule: Q04DX003 (ip), vehicle: saline 159 % of control | dose: 25.0 mg/kg/injection, schedule: Q04DX003 (ip), vehicle: saline 166 % of control
inactive: dose: 3.13 mg/kg/injection, schedule: Q01DX009 (ip), vehicle: other 88 % of control | dose: 6.25 mg/kg/injection, schedule: Q01DX009 (ip), vehicle: other 96 % of control | dose: 12.5 mg/kg/injection, schedule: Q01DX009 (ip), vehicle: other 103 % of control | dose: 25.0 mg/kg/injection, schedule: Q01DX009 (ip), vehicle: other 88 % of control

NC1=NC2C(Cl)=CC=CC2S1 (stereo unspecified)
inactive: [1] 109 % of control | [2] 107 % of control

C1CCN(CCC[Si]23OCCN(CCO2)CCO3)C1
inactive: dose: 50.0 mg/kg/injection, schedule: Q01DX005 (ip), vehicle: saline with Tween-80 108 % of control | [3] 108 % of control | dose: 200.0 mg/kg/injection, schedule: Q01DX005 (ip), vehicle: saline with Tween-80 109 % of control

COC(=O)c1nn(-c2ccc(Cl)cc2)c2nc3ccccc3c-2c1C(=O)OC
inactive: dose: 100.0 mg/kg/injection, schedule: Q01DX001 (ip), vehicle: saline with Tween-80 96 % of control | dose: 200.0 mg/kg/injection, schedule: Q01DX001 (ip), vehicle: saline with Tween-80 115 % of control | dose: 400.0 mg/kg/injection, schedule: Q01DX001 (ip), vehicle: saline with Tween-80 96 % of control

COC1(C)CC(c2ccccc2)=NO1 (stereo unspecified)
inactive: [4] 96 % of control | [5] 103 % of control | [6] 96 % of control

CC(N)(CSCc1ccccc1)C(=O)O (stereo unspecified)
inactive: dose: 25.0 mg/kg/injection, schedule: Q01DX009 (ip), vehicle: Klucel (hydroxypropylcellulose) (HPC) 100 % of control | [1] 103 % of control | [2] 107 % of control

CN=C1c2ccccc2C(=O)c2c1c(O)n(-c1ccccc1)c2O
inactive: [7] 96 % of control | [8] 100 % of control

C=CCn1c2c(c3ccccc3c1=O)C(=O)c1ccccc1-2
inactive: dose: 6.25 mg/kg/injection, schedule: Q01DX005 (ip), vehicle: saline with Tween-80 97 % of control | dose: 12.5 mg/kg/injection, schedule: Q01DX005 (ip), vehicle: saline with Tween-80 99 % of control | dose: 25.0 mg/kg/injection, schedule: Q01DX005 (ip), vehicle: saline with Tween-80 99 % of control | [3] 87 % of control

OC1OCC(COc2ccc(Cl)cc2)OC1O (stereo unspecified)
inactive: [4] 108 % of control and 118 % of control | [5] 111 % of control | [6] 123 % of control

C=C=CC(C)(O)c1ccc(-c2ccccc2)cc1 (stereo unspecified)
inactive: [7] 97 % of control | [8] 100 % of control | dose: 200.0 mg/kg/injection, schedule: Q01DX005 (ip), vehicle: Klucel (hydroxypropylcellulose) (HPC) 104 % of control

NC1CCC[C@@H](O)[C@H]1O (stereo partly specified)
inactive: dose: 60.0 mg/kg/injection, schedule: Q01DX005 (ip), vehicle: saline 104 % of control | dose: 120.0 mg/kg/injection, schedule: Q01DX005 (ip), vehicle: saline 103 % of control | dose: 240.0 mg/kg/injection, schedule: Q01DX005 (ip), vehicle: saline 98 % of control
